Experimental data reported in patent US7678913B2, “Ureas as factor Xa inhibitors” (Portola Pharmaceuticals, Inc., priority 2004, dated 2010).

target: T1, human plasma protein factor Xa (Homo sapiens, UniProt P00742); assay: Factor Xa IC50 determination (cleavage of chromogenic substrate S-2765); format: biochemical; conditions: fXa 1 nM, S-2765 100 μM, Tris buffered saline pH 7.4, room temperature
T1 construct: measure proteolytic activity of the enzyme (factor Xa); purchased Haematologic Technologies (Essex Junction, Vt.); host or cells: human plasma
Text: This example illustrates methods for evaluating the compounds of the invention, along with results obtained for such assays. The in vitro and in vivo Factor Xa isoform activities of the inventive compounds can be determined by various procedures known in the art, such as a test for their ability to inhibit the activity of the Factor Xa isoform. […] The IC50 value is the concentration (in nM) of the compound required to provide 50% inhibition of Factor Xa isoform.
An in vitro assay for detecting and measuring inhibition activity against Factor Xa is as follows:
• The substrate S-2765 (Z-D-Arg-Gly-Arg-pNA.HCl) was obtained from Diapharma (West Chester, Ohio). Enzyme: • The human plasma protein factor Xa was purchased from Haematologic Technologies (Essex Junction, Vt.). Methods
All assays, which are performed in 96-well microtiter plates, measure proteolytic activity of the enzyme (factor Xa) by following cleavage of paranitroanilide substrate. The assay buffer used for proteolytic assays was Tris buffered saline (20 mM Tris, 150 mM NaCl, 5 mM CaCl2, 0.1% Bovine serum albumin (BSA), 5% Dimethly Sulfoxide (DMSO) pH 7.4). In a 96-well microtiter plate, inhibitor was serially diluted to give a range of concentrations from 0.01 nM to 10 μM (final). Duplicate sets of wells were assayed and control wells without inhibitor were included. Enzyme was added to each well,(fXa concentration=1nM), the plate was shaken for 5 seconds and then incubated for 5 minutes at room temperature. S2765 was added (100 μM final) and the plate was shaken for 5 seconds (final liquid volume in each well was 200 μl). The degree of substrate hydrolysis was measured at 405 nm on a Thermomax plate reader (Molecular Devices, Sunnyvale, Calif.) for 2 minutes. The initial velocities (mOD/min), for each range of inhibitor concentrations, were fitted to a four parameter equation using Softmax data analysis software. The parameter C, derived from the resulting curve-fit, corresponded to the concentration for half maximal inhibition (IC50).

T1 sequence (P00742 235-488 limits assumed): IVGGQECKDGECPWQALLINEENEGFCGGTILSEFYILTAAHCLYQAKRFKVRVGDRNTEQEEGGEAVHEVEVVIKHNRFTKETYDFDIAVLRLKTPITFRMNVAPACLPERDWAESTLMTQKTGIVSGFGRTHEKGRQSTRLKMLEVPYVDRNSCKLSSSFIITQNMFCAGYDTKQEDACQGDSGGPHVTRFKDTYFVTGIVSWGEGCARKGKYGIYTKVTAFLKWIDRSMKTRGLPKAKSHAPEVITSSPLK
T1 sequence (P00742 41-179 partner limits assumed): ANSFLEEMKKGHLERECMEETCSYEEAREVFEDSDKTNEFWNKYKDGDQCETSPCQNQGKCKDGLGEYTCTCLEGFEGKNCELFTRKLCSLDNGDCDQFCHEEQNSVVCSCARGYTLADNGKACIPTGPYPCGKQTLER

| Structure (SMILES) | IC50 |
| --- | --- |
| CN1CCN=C1c1ccc(NC(=O)C(NC(=O)Nc2ccc(Cl)cc2)(c2ccccc2)c2ccccc2)cc1 [Example 14, N-[4-(1-methyl-4,5-dihydro-1H-imidazol-2-yl)phenyl]-2,2-diphenyl-2-(4-chlorophenylaminocarbonylamino)-acetamide] | ≥ 500 nM |
| CN1CCN=C1c1ccc(NC(=O)C(NC(=O)Nc2ccc(F)cc2)c2cccs2)cc1 (centres unmarked) [Example 17, N-[4-(1-methyl-4,5-dihydro-1H-imidazol-2-yl)phenyl]-2-(2-thienyl)-2-(4-fluorophenylaminocarbonylamino)-acetamide] | 100 to 500 nM |
| C#Cc1ccc(NC(=O)NC(C(=O)Nc2ccc(C3=NCCN3C)cc2)c2cccs2)cc1 (centres unmarked) [Example 18, N-[4-(1-methyl-4,5-dihydro-1H-imidazol-2-yl)phenyl]-2-(2-thienyl)-2-(4-ethynylphenylaminocarbonylamino)-acetamide] | 100 to 500 nM |
| CN(C)C(=N)c1ccc(NC(=O)C(NC(=O)Nc2ccc(Cl)cc2)c2cccs2)cc1 (centres unmarked) [Example 19, N-[4-(dimethylaminoimino)phenyl]-2-(2-thienyl)-2-(4-chlorophenylamino-carbonylamino)-acetamide] | ≤ 100 nM |
| CCN(C)C(=N)c1ccc(NC(=O)C(NC(=O)Nc2ccc(Cl)cc2)c2cccs2)cc1 (centres unmarked) [Example 20, N-[4-(N-methyl-N-ethylaminoimino)phenyl]-2-(2-thienyl)-2-(4-chlorophenylaminocarbonylamino)-acetamide] | ≤ 100 nM |
| N=C(c1ccc(NC(=O)C(NC(=O)Nc2ccc(Cl)cc2)c2cccs2)cc1)N1CCCC1 (centres unmarked) [Example 21] | ≤ 100 nM |
| N=C(c1ccc(NC(=O)C(NC(=O)Nc2ccc(Cl)cc2)c2cccs2)cc1)N1CCCCC1 (centres unmarked) [Example 22] | ≤ 100 nM |
| CN(C)C(=N)c1ccc(NC(=O)C(NC(=O)Nc2ccc(Cl)cc2)c2ccccc2)cc1 (centres unmarked) [Example 23] | ≤ 100 nM |
| CCN(C)C(=N)c1ccc(NC(=O)C(NC(=O)Nc2ccc(Cl)cc2)c2ccccc2)cc1 (centres unmarked) [Example 24, N-[4-(N-methyl-N-ethylaminoimino)phenyl]-2-phenyl-2-(4-chlorophenylaminocarbonylamino)-acetamide] | ≤ 100 nM |
| CNC(=N)c1ccc(NC(=O)C(NC(=O)Nc2ccc(Cl)cc2)c2ccccc2)cc1 (centres unmarked) [Example 25, N-[4-(methylaminoimino)phenyl]-2-phenyl-2-(4-chlorophenylamino-carbonylamino)-acetamide] | ≤ 100 nM |
| C=CCN(C)C(=N)c1ccc(NC(=O)C(NC(=O)Nc2ccc(Cl)cc2)c2ccccc2)cc1 (centres unmarked) [Example 26, N-[4-(N-methyl-N-allylaminoimino)phenyl]-2-phenyl-2-(4-chlorophenylaminocarbonylamino)-acetamide] | ≤ 100 nM |
| C#CCN(C)C(=N)c1ccc(NC(=O)C(NC(=O)Nc2ccc(Cl)cc2)c2ccccc2)cc1 (centres unmarked) [Example 27, N-[4-(N-methyl-N-propargylaminoimino)phenyl]-2-phenyl-2-(4-chlorophenylaminocarbonylamino)-acetamide] | ≤ 100 nM |
| N=C(c1ccc(NC(=O)C(NC(=O)Nc2ccc(Cl)cc2)c2ccccc2)cc1)N1CCC1 (centres unmarked) [Example 28] | ≤ 100 nM |
| N=C(c1ccc(NC(=O)C(NC(=O)Nc2ccc(Cl)cc2)c2ccccc2)cc1)N1CCCC1 (centres unmarked) [Example 29] | ≤ 100 nM |
| CN1CCN=C1c1ccc(NC(=O)C(NC(=O)Nc2ccc(Br)cc2)c2cccs2)cc1 (centres unmarked) [Example 30, N-[4-(1-methyl-4,5-dihydro-1H-imidazol-2-yl)phenyl]-2-(2-thienyl)-2-(4-bromophenylaminocarbonylamino)-acetamide] | ≤ 100 nM |

Other lines, results leading:

| IC50 | Structure (SMILES) |
| --- | --- |
| ≤ 100 nM | CN1CCN=C1c1ccc(NC(=O)CNC(=O)Nc2ccc(Cl)cc2)cc1 [Example 1, N-[4-(1-methyl-4,5-dihydro-1H-imidazol-2-yl)phenyl]-2-(4-chlorophenylaminocarbonylamino)-acetamide] |
| ≤ 100 nM | CC(C)C(NC(=O)Nc1ccc(Cl)cc1)C(=O)Nc1ccc(C2=NCCN2C)cc1 (centres unmarked) [Example 2, N-[4-(1-methyl-4,5-dihydro-1H-imidazol-2-yl)phenyl]-2-isopropyl-2-(4-chlorophenylaminocarbonylamino)-acetamide] |
| 100 to 500 nM | CN1CCN=C1c1ccc(NC(=O)C(NC(=O)Nc2ccc(Cl)cc2)C(C)(C)C)cc1 (centres unmarked) [Example 3, N-[4-(1-methyl-4,5-dihydro-1H-imidazol-2-yl)phenyl]-2-(1,1-dimethylethyl)-2-(4-chlorophenylaminocarbonylamino)-acetamide] |
| ≥ 500 nM | CN1CCN=C1c1ccc(NC(=O)C(CC(C)(C)C)NC(=O)Nc2ccc(Cl)cc2)cc1 (centres unmarked) [Example 4, N-[4-(1-methyl-4,5-dihydro-1H-imidazol-2-yl)phenyl]-2-(2,2-dimethylpropyl)-2-(4-chlorophenylaminocarbonylamino)-acetamide] |
| ≤ 100 nM | CN1CCN=C1c1ccc(NC(=O)C(Cc2ccccc2)NC(=O)Nc2ccc(Cl)cc2)cc1 (centres unmarked) [Example 5, N-[4-(1-methyl-4,5-dihydro-1H-imidazol-2-yl)phenyl]-2-benzyl-2-(4-chlorophenylaminocarbonylamino)-acetamide] |
| ≤ 100 nM | CN1CCN=C1c1ccc(NC(=O)C(Cc2c[nH]c3ccccc23)NC(=O)Nc2ccc(Cl)cc2)cc1 (centres unmarked) [Example 6, N-[4-(1-methyl-4,5-dihydro-1H-imidazol-2-yl)phenyl]-2-indol-3-ylmethyl-2-(4-chlorophenylaminocarbonylamino)-acetamide] |
| ≤ 100 nM | CN1CCN=C1c1ccc(NC(=O)C(Cc2c[nH]cn2)NC(=O)Nc2ccc(Cl)cc2)cc1 (centres unmarked) [Example 7, N-[4-(1-methyl-4,5-dihydro-1H-imidazol-2-yl)phenyl]-2-imidazol-4-ylmethyl-2-(4-chlorophenylaminocarbonylamino)-acetamide] |
| ≤ 100 nM | CN1CCN=C1c1ccc(NC(=O)C(Cc2cn(C)c3ccccc23)NC(=O)Nc2ccc(Cl)cc2)cc1 (centres unmarked) [Example 8, N-[4-(1-methyl-4,5-dihydro-1H-imidazol-2-yl)phenyl]-2-(1-methyl-indol-3-ylmethyl)-2-(4-chlorophenylaminocarbonylamino)-acetamide] |
| 100 to 500 nM | CN1CCN=C1c1ccc(NC(=O)C(NC(=O)Nc2ccc(Cl)cc2)c2cccnc2)cc1 (centres unmarked) [Example 9, N-[4-(1-methyl-4,5-dihydro-1H-imidazol-2-yl)phenyl]-2-pyridin-3-yl-2-(4-chlorophenylaminocarbonylamino)-acetamide] |
| ≤ 100 nM | CN1CCN=C1c1ccc(NC(=O)C(NC(=O)Nc2ccc(Cl)cc2)c2ccc(F)cc2)cc1 (centres unmarked) [Example 10, N-[4-(1-methyl-4,5-dihydro-1H-imidazol-2-yl)phenyl]-2-(4-fluorophenyl)-2-(4-chlorophenylaminocarbonylamino)-acetamide] |
| ≤ 100 nM | CN1CCN=C1c1ccc(NC(=O)C(NC(=O)Nc2ccc(Cl)cc2)c2ccccc2F)cc1 (centres unmarked) [Example 11, N-[4-(1-methyl-4,5-dihydro-1H-imidazol-2-yl)phenyl]-2-(2-fluorophenyl)-2-(4-chlorophenylaminocarbonylamino)-acetamide] |
| ≤ 100 nM | CN1CCN=C1c1ccc(NC(=O)C(NC(=O)Nc2ccc(Cl)cc2)c2cccs2)cc1 (centres unmarked) [Example 12, N-[4-(1-methyl-4,5-dihydro-1H-imidazol-2-yl)phenyl]-2-(2-thienyl)-2-(4-chlorophenylaminocarbonylamino)-acetamide] |
| ≤ 100 nM | CN1CCN=C1c1ccc(NC(=O)C(NC(=O)Nc2ccc(Cl)cc2)c2ccsc2)cc1 (centres unmarked) [Example 13, N-[4-(1-methyl-4,5-dihydro-1H-imidazol-2-yl)phenyl]-2-(3-thienyl)-2-(4-chlorophenylaminocarbonylamino)-acetamide] |
| 100 to 500 nM | CN1CCN=C1c1ccc(NC(=O)C2(NC(=O)Nc3ccc(Cl)cc3)CC2)cc1 [Example 15, N-[4-(1-methyl-4,5-dihydro-1H-imidazol-2-yl)phenyl]-1-(4-chlorophenylaminocarbonylamino)-1-cyclopropanecarboxamide] |
| ≤ 100 nM | CN1CCN=C1c1ccc(NC(=O)C(NC(=O)Nc2ccc(Cl)cc2)c2ccccc2)cc1 (centres unmarked) [Example 16, N-[4-(1-methyl-4,5-dihydro-1H-imidazol-2-yl)phenyl]-2-phenyl-2-(4-chlorophenylaminocarbonylamino)-acetamide] |
| ≤ 100 nM | CN1CCN=C1c1ccc(NC(=O)[C@@H](NC(=O)Nc2ccc(Cl)cc2)c2ccccc2)cc1 [Example 31, (2S) N-[4-(1-methyl-4,5-dihydro-1H-imidazol-2-yl)phenyl]-2-phenyl-2-(4-chlorophenylaminocarbonylamino)-acetamide] |
| ≤ 100 nM | CN1CCN=C1c1ccc(NC(=O)[C@H](NC(=O)Nc2ccc(Cl)cc2)c2ccccc2)cc1 [Example 32, (2R) N-[4-(1-methyl-4,5-dihydro-1H-imidazol-2-yl)phenyl]-2-phenyl-2-(4-chlorophenylaminocarbonylamino)-acetamide] |
